The subject of this assay is ERK phosphorylation. Briefly: ERK phosphorylation in brain of worker bees after TRP2 injection or TRP/TRPR knockdown (Western blot). It is filed as in vivo, Apis mellifera ligustica. The note with it: for ERK phosphorylation in brain: 6A. Here is the method:
Cells were seeded in 24-well plates and starved for 4 hr in serum-free medium to reduce background ERK1/2 activation and eliminate the effects of the change of medium. […] Protein concentration was determined according to the Bradford method using BSA as the standard and the absorption was measured at 595 nm (spectrophotometer DU800, Beckman Coulter, USA), then all the samples were kept in −80°C for further use. For Western blot, equal amounts of total cell lysate (20 μg/lane) were fractionated by SDS-PAGE (10%) and transferred to a PVDF membrane (Millipore, USA) using an iBlot dry blotting system (Invitrogen, USA). The membranes were blocked for 2 hr at room temperature and then incubated with rabbit monoclonal anti-pERK1/2 antibody (Cell Signaling Technology, USA) and anti-rabbit horseradish peroxidase-conjugated secondary antibody (Cell Signaling Technology) according to the manufacturers’ protocols. Antibody reactive bands were visualized using Pierce ECL western blotting substrate (Thermo Fisher Scientific, USA) followed by photographic film exposure. Total ERK1/2 was assessed as a loading control after p-ERK1/2 chemiluminescence detection. Quantification analyses were performed using Gel-Pro Analyzer 4.0 software (Media Cybernetics, USA).
Three independent replicate groups per condition were collected and Western blot analyses were performed: Honeybee brains were carefully dissected and frozen at −80°C until protein extraction. Brain protein extractions were carried out according to our previously described method with some modifications. Briefly, the […] were homogenized with lysis buffer (LB, 8 M urea, 2 M thiourea, 4% CHAPS, 20 mM Tris-base, 30 mM dithiothreitol). The mixture was homogenized for 30 min on ice and sonicated 20 s per 5 min during this time, then centrifuged at 12,000 g and 4°C for 10 min. Ice-cold acetone was added to the collected supernatants, and then the mixture was kept on ice for 30 min for protein precipitation. Subsequently, the mixture was centrifuged at 12,000 g and 4°C for 10 min. The supernatant was discarded and the pellets were resolved in LB and kept at −20°C for further use. Western blot analyses were performed as described in 'TRP/TRPR signaling targets: cAMP, Ca^2+, and ERK' section.
Background: In western blotting, separated proteins are transferred to a membrane and probed.

Regarding “ALMGFQGVRa [TRP2, honeybee tachykinin-related peptide 2, synthesized by SynPeptide]”, the “ERK phosphorylation in brain” value came out at 0.0746 (NB, replicate 1); 0.0650 (NB, replicate 2); 0.0783 (NB, replicate 3); 0.5050 (NF, replicate 1); 0.5454 (NF, replicate 2); 0.5933 (NF, replicate 3). Further, the “ERK phosphorylation in brain” value worked out at 0.2191 (PF, replicate 1); 0.2416 (PF, replicate 2); 0.2036 (PF, replicate 3). Besides, the “level of phosphorylated ERK in brain” value (after injection into NBs, PFs and NFs, vs ddH2O) was “significantly increased”.

The record behind these values is article PMC8016481, “Tachykinin signaling inhibits task-specific behavioral responsiveness in honeybee workers” (eLife, 2021).
